Paper PMC4019507, “From Arylamine N-Acetyltransferase to Folate-Dependent Acetyl CoA Hydrolase: Impact of Folic Acid on the Activity of (HUMAN)NAT1 and Its Homologue (MOUSE)NAT2” (PLoS ONE, 2014)
Each block holds one molecule with its values, some of them ahead of it.

What was measured:
Assay type in all cases: biochemical
[1] = molecular target: T1, (MOUSE)NAT2, murine arylamine N-acetyltransferase Type 2 (Mus musculus, UniProt P50295); experiment: real-time 1H-NMR and DTNB assay of hydrolysis to CoA and acetate
T1 construct: pure recombinant
T1 sequence (P50295 1-290): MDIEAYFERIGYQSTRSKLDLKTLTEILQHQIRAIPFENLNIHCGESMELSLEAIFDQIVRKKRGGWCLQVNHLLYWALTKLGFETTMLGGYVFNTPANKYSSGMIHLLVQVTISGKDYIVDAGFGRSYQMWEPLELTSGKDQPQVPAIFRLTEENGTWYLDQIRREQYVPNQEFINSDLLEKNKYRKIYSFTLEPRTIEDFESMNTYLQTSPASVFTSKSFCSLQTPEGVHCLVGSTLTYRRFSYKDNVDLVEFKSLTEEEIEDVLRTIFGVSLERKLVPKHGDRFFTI

[2] = molecular target: T2, (HUMAN)NAT1, human arylamine N-acetyltransferase Type 1 (Homo sapiens, UniProt P18440); experiment: HPLC time course of hydrolysis to CoA
T2 construct: pure recombinant
T2 sequence (P18440 1-290): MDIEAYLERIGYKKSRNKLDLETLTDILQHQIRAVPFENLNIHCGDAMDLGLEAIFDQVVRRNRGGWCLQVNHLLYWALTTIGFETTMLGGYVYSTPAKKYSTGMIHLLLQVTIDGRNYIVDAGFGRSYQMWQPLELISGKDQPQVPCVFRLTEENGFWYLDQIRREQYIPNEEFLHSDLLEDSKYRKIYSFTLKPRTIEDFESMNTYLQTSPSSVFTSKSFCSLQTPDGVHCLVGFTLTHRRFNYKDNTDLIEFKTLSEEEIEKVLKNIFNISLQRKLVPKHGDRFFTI

[3] = molecular target: T1, (MOUSE)NAT2, murine arylamine N-acetyltransferase Type 2; experiment: DTNB colorimetric hydrolysis assay
[4] = molecular target: T1, (MOUSE)NAT2, murine arylamine N-acetyltransferase Type 2; experiment: DTNB colorimetric assay of folate-dependent AcCoA hydrolysis, dose response
From the text: DTNB colorimetric assay of folate-dependent AcCoA hydrolysis, dose response on (MOUSE)NAT2, murine arylamine N-acetyltransferase Type 2 | its concentration dependence was characterised (Figure 6C).

[5] = molecular target: T2, (HUMAN)NAT1, human arylamine N-acetyltransferase Type 1; experiment: folate concentration dependence of AcCoA hydrolysis (Michaelis-Menten fit); HPLC time course
[6] = molecular target: T1, (MOUSE)NAT2, murine arylamine N-acetyltransferase Type 2; experiment: folate concentration dependence of AcCoA hydrolysis (Michaelis-Menten fit); real-time 1H-NMR of turnover

specific rate of hydrolysis to CoA and acetate [1]: 360 µM/s/mg
specific rate of hydrolysis to CoA [2]: 583 µM/s/mg
SMILES: CC(=O)SCCNC(=O)CCNC(=O)[C@H](O)C(C)(C)COP(=O)(O)OP(=O)(O)OC[C@H]1O[C@@H](n2cnc3c(N)ncnc32)[C@H](O)[C@@H]1OP(=O)(O)O [acetyl Coenzyme A]

specific acetyl-CoA hydrolysis rate [3]: 290 µM/s/mg
SMILES: CCC(=O)SCCNC(=O)CCNC(=O)[C@H](O)C(C)(C)COP(=O)(O)OP(=O)(O)OC[C@H]1O[C@@H](n2cnc3c(N)ncnc32)[C@H](O)[C@@H]1OP(=O)(O)O [n-propionyl CoA]

IC50 [4]: 0.14 µM
SMILES: Cc1cc(C)cc(NC2=C(NS(=O)(=O)c3ccccc3)C(=O)c3ccccc3C2=O)c1 [compound 1, naphthoquinone 1]

Kd [5]: ~75 µM
Kd [6]: ~71 µM
SMILES: Nc1nc2ncc(CNc3ccc(C(=O)N[C@@H](CCC(=O)O)C(=O)O)cc3)nc2c(=O)[nH]1 [folate]
